Data from US20220268780A1, “METHODS OF PREDICTING ENDOMETRIAL RECEPTIVITY” (HUDSON INSTITUTE OF MEDICAL RESEARCH, priority 2019, published 2022).

Tested on: PCX mRNA in Ishikawa cells
Test: Transfection of miRNA mimics into Ishikawa cells, PCX mRNA by real-time RT-PCR
Assay type: cell-based, human
Conditions: mimic 5 μm, 24 h after transfection
Method: To confirm that these two miRNAs can directly down-regulate PCX, mimics of these miRNAs were transfected into a human endometrial epithelial Ishikawa cell line and the impact on the level of PCX expression examined.
Ishikawa cells were cultured overnight in a 12-well plate (3.0×10^5 per well) in complete medium containing MEM (Thermo Fisher Scientific) supplemented with 10% FCS, 1% L-glutamine (Sigma) and 1% antibiotic-antimycotic. The following day, cells were replenished with Opti-MEM for transfection. Control and miRNA mimics (5 μm, all from Thermo Fisher Scientific) were transfected into Ishikawa cells using Lipofectamine RNAiMAX Transfection Reagent (Thermo Fisher Scientific) for 24, 48, 72 h respectively, and PCX mRNA levels were examined by real-time RT-PCR. Combination of the two miRNAs (5 μm each) was also tested.

Substance	repression of PCX mRNA [%]
miR-145: miRNA mimic (Thermo Fisher Scientific); sequence GUCCAGUUUUCCCAGGAAUCCCU, SEQ ID NO: 33 (chemistry not given here)	~34
miR-199: miRNA mimic (Thermo Fisher Scientific); sequence CCCAGUGUUCAGACUACCUGUUC, SEQ ID NO: 31 (chemistry not given here)	~34
